Key:
[1] = Measurement of self-relaxation rate (relaxivity) R1 at 1.5 T (64 MHz); type: physicochemical; conditions: inverse recovery method
Description: Thus, the self-relaxation rate is a factor that determines the efficiency of contrast agent in magnetic resonance imaging. T1 (relaxation time) measurements were carried out using an inverse recovery method with a variable […] (TI) at 1.5 T (64 MHz). The magnetic resonance (MR) images were acquired at 35 different T1 values ranging from 50 to 1750 msec. T1 was obtained from the non-linear least square fit of the signal intensity measured at each TI value. Relaxivity (R1) was then calculated as an inverse of relaxation time per mM.

[2] = Stability constant and pM value for copper; type: physicochemical; conditions: for {log KCuL(pH 7.4)}: 25° C., μ = 0.10M (KCl); for pCu: pM = −log[Mn+] free at pH 7.4, [Mn+] total = 1 μmol/dm3, [L] total = 1.1 μmol/dm3; for [CuL]/[Cu][L]: stability constant, log K (25° C., μ = 0.10M (KCl))
Description: (§1) The stability constant (KML) can be defined by the equation of KML=[ML]/[M][L], wherein M is Gd, Ca, Zn, Cu, and L indicates a ligand.
(§2) The pM value can be defined by the equation of pM=−log [Mn^+] at pH=7.4.
[M]=1.0 μmol/dm^3, [L]=1.1 μmol/dm^3

[3] = Stability constant and pM value for calcium; type: physicochemical; conditions: for {log KCaL(PH 7.4)}: 25° C., μ = 0.10M (KCl); for pCa: pM = −log[Mn+] free at pH 7.4, [Mn+] total = 1 μmol/dm3, [L] total = 1.1 μmol/dm3; for [CaL]/[Ca][L]: stability constant, log K (25° C., μ = 0.10M (KCl))
Description: as §1, §2
[M]=1.0 μmol/dm^3, [L]=1.1 μmol/dm^3

[4] = Stability, conditional stability and selectivity constants and pM value for gadolinium; type: physicochemical; conditions: for log K′sel: conditional stability constant (K′Sel); for log K′sel / {log KGdL(PH 7.4)} / [log Ksel(Gd/Ca)] / [log Ksel(Gd/Cu)] / [log Ksel(Gd/Zn)]: 25° C., μ = 0.10M (KCl); for pGd: pM = −log[Mn+] free at pH 7.4, [Mn+] total = 1 μmol/dm3, [L] total = 1.1 μmol/dm3; for [log Ksel(Gd/Ca)]: selectivity constant Gd over Ca; for [log Ksel(Gd/Cu)]: selectivity constant Gd over Cu; for [log Ksel(Gd/Zn)]: selectivity constant Gd over Zn; for [GdL]/[Gd][L]: stability constant, log K (25° C., μ = 0.10M (KCl))
Description: as §1, §2
[M]=1.0 μmol/dm^3, [L]=1.1 μmol/dm^3

[5] = Stability constant and pM value for zinc; type: physicochemical; conditions: for {log KZnL(pH 7.4)}: 25° C., μ = 0.10M (KCl); for pZn: pM = −log[Mn+] free at pH 7.4, [Mn+] total = 1 μmol/dm3, [L] total = 1.1 μmol/dm3; for [ZnL]/[Zn][L]: stability constant, log K (25° C., μ = 0.10M (KCl))
Description: as §1, §2
[M]=1.0 μmol/dm^3, [L]=1.1 μmol/dm^3

[6] = Measurement of protonation equilibrium constants (KiH) of the ligands; conditions: for ΣpKa: 25° C., μ = 0.10M (KCl); for [H2L]/[HL][H] / [H3L]/[H2L][H] / [H5L][H4L][H] / [HL]/[L][H]: protonation equilibrium constant, log K (25° C., μ = 0.10M (KCl))
Description: The protonation equilibrium constant (KiH) can be defined by the equation of KiH═[HiL]/[Hi-1L][H^+], wherein HiL is a protonated ligand (i=1, 2, . . . ).

[7] = 20 MHz, 298 K; cited from earlier work

SMILES	R1 [1] [mM⁻¹ s⁻¹]	{log KCuL(pH 7.4)} [2]	pCu [2]	[CuL]/[Cu][L] [2]	{log KCaL(PH 7.4)} [3]	pCa [3]	[CaL]/[Ca][L] [3]	log K′sel [4]	{log KGdL(PH 7.4)} [4]	pGd [4]	[log Ksel(Gd/Ca)] [4]	[log Ksel(Gd/Cu)] [4]	[log Ksel(Gd/Zn)] [4]	[GdL]/[Gd][L] [4]	{log KZnL(pH 7.4)} [5]	pZn [5]	[ZnL]/[Zn][L] [5]	[H2L]/[HL][H] [6]	[H3L]/[H2L][H] [6]	[HL]/[L][H] [6]	also measured
O.O=C([O-])CN(CCN(CC(=O)[O-])CC(=O)NC(Cc1cnc[nH]1)C(=O)O)CCN(CC(=O)[O-])CC(=O)NC(Cc1cnc[nH]1)C(=O)O.[Gd+3] (stereo not drawn) [[Gd(L1)H2O]]	5.9 ± 0.03																				
O.O=C([O-])CN(CCN(CC(=O)[O-])CC(=O)NC(CC(=O)O)C(=O)O)CCN(CC(=O)[O-])CC(=O)NC(CC(=O)O)C(=O)O.[Gd+3] (stereo not drawn) [[Gd(L2)H2O]]	6.9 ± 0.04																				
O=C(O)CC(NC(=O)CN(CCN(CCN(CC(=O)O)CC(=O)NC(CC(=O)O)C(=O)O)CC(=O)O)CC(=O)O)C(=O)O (stereo not drawn) [Complex L2, DTPA-bis-amide-aspartic acid]		8.59	7.59	14.78	4.01	30.1	10.18	10.74	14.93	13.98	10.92	6.34	6.45	21.12	8.48	7.48	14.67	9.42	5.92	11.55	ΣpKa [6]: 28.93; [H5L][H4L][H] [6]: 2.04
O=C(O)CN(CCN(CC(=O)O)CC(=O)NC(Cc1cnc[nH]1)C(=O)O)CCN(CC(=O)O)CC(=O)NC(Cc1cnc[nH]1)C(=O)O (stereo not drawn) [Complex L1, DTPA-bis-amide-histidine]		8.42	7.42	10.98	4.30	3.30	6.86	19.59	17.03	16.03	12.73	8.66	8.66	19.59	8.37	7.37	10.93	7.59	6.52	9.52	[H5L][H4L][H] [6]: 3.82
CNC(=O)CN(CCN(CCN(CC(=O)[O-])CC(=O)NC)CC(=O)[O-])CC(=O)[O-].[Gd+3] [Omniscan, [Gd(DTPA-bismethylamide)(H2O)], reference compound]	3.3 ± 0.03	11.06	10.05	13.03	5.11	4.19	7.17	9.03	14.84	13.88	9.68	3.82	4.81	16.85	10.02	9.06	12.04	4.38	3.31	9.37	self-relaxation rate [7]: 4400 M⁻¹ s⁻¹; ΣpKa [6]: 17.06
CNC[C@H](O)[C@@H](O)[C@H](O)[C@H](O)CO.CNC[C@H](O)[C@@H](O)[C@H](O)[C@H](O)CO.O=C([O-])CN(CCN(CC(=O)[O-])CC(=O)O)CCN(CC(=O)[O-])CC(=O)O.[Gd+3] [Magnevist, (N-Me-glucamine)2[Gd(DTPA)(H2O)]]																					self-relaxation rate [7]: approximately 4.7 mM^−1s^−1
